Legend:
barnyardgrass [1] = test: Test A pre-/postemergence herbicide test; assay type: in vivo, Echinochloa crus-galli
Summary of the method: (§1)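 Directed soil spray to seeded pots (preemergence) or spray onto one- to two-leaf seedlings 2–10 cm tall (postemergence); loam/sand substrate throughout. Evaluated visually after about 10 days against untreated plants, 0 = no effect, 100 = complete control.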

kochia = test: Test A pre-/postemergence herbicide test; assay type: in vivo, Kochia scoparia; conditions: for Plant response rating, Kochia: 0 to 100 scale
Summary of the method: as §1

ragweed = test: Test A pre-/postemergence herbicide test; assay type: in vivo, Ambrosia elatior; conditions: for Plant response rating, Ragweed: 0 to 100 scale
Summary of the method: as §1

ryegrass, Italian = test: Test A pre-/postemergence herbicide test; assay type: in vivo, Lolium multiflorum; conditions: for Plant response rating, Ryegrass, Italian: 0 to 100 scale
Summary of the method: as §1

giant foxtail = test: Test A pre-/postemergence herbicide test; assay type: in vivo, Setaria faberii; conditions: for Plant response rating, Foxtail, Giant: 0 to 100 scale
Summary of the method: as §1

pigweed = test: Test A pre-/postemergence herbicide test; assay type: in vivo, Amaranthus retroflexus; conditions: for Plant response rating, Pigweed: 0 to 100 scale
Summary of the method: as §1

wheat = test: Test A pre-/postemergence herbicide test; assay type: in vivo, Triticum aestivum; conditions: Postemergence; for Plant response rating, Wheat: 125 g ai/ha, 0 to 100 scale, 0 is no effect, 100 is complete control; for Wheat plant response rating (0 to 100 scale, 0 is no effect, 100 is complete control): 500 g ai/ha
Summary of the method: as §1

corn = test: Test A pre-/postemergence herbicide test; assay type: in vivo, Zea mays; conditions: Postemergence; for Plant response rating, Corn: 125 g ai/ha, 0 to 100 scale, 0 is no effect, 100 is complete control; for Corn plant response rating (0 to 100 scale, 0 is no effect, 100 is complete control): 500 g ai/ha
Summary of the method: as §1

blackgrass = test: Test A postemergence herbicide test; assay type: in vivo, Alopecurus myosuroides; conditions: for Plant response rating, Blackgrass: 125 g ai/ha, 0 to 100 scale, 0 is no effect, 100 is complete control; for Blackgrass plant response rating (0 to 100 scale, 0 is no effect, 100 is complete control): 500 g ai/ha
Summary of the method: (§2)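 Ratings compare treated with untreated plants roughly 10 days after a postemergence application made at the one- to two-leaf stage. Scoring uses 0–100, where 0 means no effect and 100 complete control.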

galium = test: Test A postemergence herbicide test; assay type: in vivo, Galium aparine; conditions: for Plant response rating, Galium: 125 g ai/ha, 0 to 100 scale, 0 is no effect, 100 is complete control; for Galium plant response rating (0 to 100 scale, 0 is no effect, 100 is complete control): 500 g ai/ha
Summary of the method: as §2

rice = test: Test B flooded paddy test; assay type: in vivo, Oryza sativa; conditions: 500 g ai/ha, Flood; scale of 0 to 100 where 0 is no effect and 100 is complete control
Summary of the method: (§3)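 Plants were grown to the 2-leaf stage, then pots were flooded to 3 cm above the soil and compound was applied directly into the paddy water, with that depth held throughout. After 13 to 15 days in a greenhouse, injury was rated visually against untreated controls on a 0 to 100 scale (100 = complete control).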

sedge, umbrella = test: Test B flooded paddy test; assay type: in vivo, Cyperus difformis; conditions: 500 g ai/ha, Flood; scale of 0 to 100 where 0 is no effect and 100 is complete control
Summary of the method: as §3

ducksalad = test: Test B flooded paddy test; assay type: in vivo, Heteranthera limosa; conditions: 500 g ai/ha, Flood; scale of 0 to 100 where 0 is no effect and 100 is complete control
Summary of the method: as §3

barnyardgrass [2] = test: Test B flooded paddy test; assay type: in vivo, Echinochloa crus-galli; conditions: 500 g ai/ha, Flood; scale of 0 to 100 where 0 is no effect and 100 is complete control
Summary of the method: as §3

[3] = 125 g ai/ha, visual rating, 0 to 100 scale, 0 no effect, 100 complete control, approximately 10 days, preemergence
[4] = Postemergence, 125 g ai/ha, 0 to 100 scale, 0 is no effect, 100 is complete control
[5] = preemergence, 500 g ai/ha, 0 to 100 scale (0 no effect, 100 complete control)
[6] = 125 g ai/ha, visual rating, 0 no effect, 100 complete control, approximately 10 days, preemergence
[7] = Postemergence, 125 g ai/ha, 0 is no effect, 100 is complete control
[8] = preemergence, 500 g ai/ha, 0 is no effect and 100 is complete control

SMILES | Plant response rating, Barnyardgrass (barnyardgrass [1]; [3]) | Plant response rating, Barnyardgrass (barnyardgrass [1]; [4]) | Barnyardgrass plant response rating (0 to 100 scale, 0 is no effect, 100 is complete control) (barnyardgrass [1]; Postemergence, 500 g ai/ha) | Plant response rating, Barnyardgrass (barnyardgrass [1]; [5]) | Plant response rating, Kochia (kochia; [6]) | Plant response rating, Kochia (kochia; [7]) | Kochia plant response rating (0 to 100 scale, 0 is no effect, 100 is complete control) (kochia; Postemergence, 500 g ai/ha) | Plant response rating, Kochia (kochia; [8]) | Plant response rating, Ragweed (ragweed; [6]) | Plant response rating, Ragweed (ragweed; [7]) | Ragweed plant response rating (0 to 100 scale, 0 is no effect, 100 is complete control) (ragweed; Postemergence, 500 g ai/ha) | Plant response rating, Ragweed (ragweed; [8]) | Plant response rating, Ryegrass, Italian (ryegrass, Italian; [6]) | Plant response rating, Ryegrass, Italian (ryegrass, Italian; [7]) | Ryegrass, Italian plant response rating (0 to 100 scale, 0 is no effect, 100 is complete control) (ryegrass, Italian; Postemergence, 500 g ai/ha) | Plant response rating, Ryegrass, Italian (ryegrass, Italian; [8]) | Plant response rating, Foxtail, Giant (giant foxtail; [6]) | Plant response rating, Foxtail, Giant (giant foxtail; [7]) | Foxtail, Giant plant response rating (0 to 100 scale, 0 is no effect, 100 is complete control) (giant foxtail; Postemergence, 500 g ai/ha) | Plant response rating, Foxtail, Giant (giant foxtail; preemergence, 500 g ai/ha) | other results
CCc1cccc(C2CNC(=O)C2C(=O)Nc2cccc(F)c2F)c1 (racemic) [Compound 170] | 90 | 90 | 90 | 90 | 50 | 20 | 50 | 70 | 0 | 20 | 50 | 60 | 0 | 20 | 60 | 50 | 80 | 60 | 90 | 90 | Plant response rating, Pigweed (pigweed; [6]): 50; Plant response rating, Pigweed (pigweed; [7]): 20; Pigweed plant response rating (0 to 100 scale, 0 is no effect, 100 is complete control) (pigweed; Postemergence, 500 g ai/ha): 30; Plant response rating, Pigweed (pigweed; [8]): 50; Plant response rating, Wheat (wheat): 0; Wheat plant response rating (0 to 100 scale, 0 is no effect, 100 is complete control) (wheat): 60; Plant response rating, Corn (corn): 20; Corn plant response rating (0 to 100 scale, 0 is no effect, 100 is complete control) (corn): 70; Plant response rating, Blackgrass (blackgrass): 50; Blackgrass plant response rating (0 to 100 scale, 0 is no effect, 100 is complete control) (blackgrass): 60; Plant response rating, Galium (galium): 60; Galium plant response rating (0 to 100 scale, 0 is no effect, 100 is complete control) (galium): 60; Plant response rating, Rice (rice): 15; Plant response rating, Sedge, Umbrella (sedge, umbrella): 0; Plant response rating, Ducksalad (ducksalad): 100; Plant response rating, Barnyardgrass (barnyardgrass [2]): 85
CCc1cccc(C2CNC(=O)C2C(=O)Nc2ccc(F)c(F)c2F)c1 (racemic) [Compound 171] | 90 | 90 | 90 | 90 | 60 | 0 | 30 | 70 | 0 | 0 | 30 | 30 | 0 | 20 | 30 | 30 | 90 | 60 | 80 | 90 | Plant response rating, Pigweed (pigweed; [6]): 20; Plant response rating, Pigweed (pigweed; [7]): 0; Pigweed plant response rating (0 to 100 scale, 0 is no effect, 100 is complete control) (pigweed; Postemergence, 500 g ai/ha): 40; Plant response rating, Pigweed (pigweed; [8]): 40; Plant response rating, Wheat (wheat): 0; Wheat plant response rating (0 to 100 scale, 0 is no effect, 100 is complete control) (wheat): 50; Plant response rating, Corn (corn): 20; Corn plant response rating (0 to 100 scale, 0 is no effect, 100 is complete control) (corn): 70; Plant response rating, Blackgrass (blackgrass): 50; Blackgrass plant response rating (0 to 100 scale, 0 is no effect, 100 is complete control) (blackgrass): 60; Plant response rating, Galium (galium): 50; Galium plant response rating (0 to 100 scale, 0 is no effect, 100 is complete control) (galium): 70; Plant response rating, Rice (rice): 0; Plant response rating, Sedge, Umbrella (sedge, umbrella): 0; Plant response rating, Ducksalad (ducksalad): 100; Plant response rating, Barnyardgrass (barnyardgrass [2]): 70

— US10294202B2, “Pyrrolidinones as herbicides” (FMC Corporation, priority 2013, dated 2019)
